From ChEMBL document CHEMBL5331042, “Azole inhibitors of mushroom and human tyrosinases: Current advances and prospects of drug development for melanogenic dermatological disorders” (Eur J Med Chem, 2022)

What follows are molecules tested against T1, Mushroom tyrosinase (Agaricus bisporus, UniProt O42713+Q00024+C7FF04+C7FF05) (assay: Inhibition of mushroom tyrosinase incubated for 10 mins by spectrophotometric analysis).

| SMILES | IC50 |
| --- | --- |
| CCCCCn1nc(-c2ccccc2)n(CC(=O)NNC(=O)Nc2ccc(Br)cc2)c1=O | > 20 µM |
| CCCCCn1nc(-c2ccccc2)n(CC(=O)NNC(=O)Nc2ccc(F)cc2F)c1=O | > 20 µM |
| CCCCCn1nc(-c2ccccc2)n(CC(=O)NNC(=S)Nc2cccc(Br)c2)c1=O | > 20 µM |
| CCCCCn1nc(-c2ccccc2)n(CC(=O)NNC(=S)Nc2ccccc2F)c1=O | > 20 µM |
| CCCCCn1nc(-c2ccccc2)n(CC(=O)NNC(=O)Nc2cccc(Cl)c2)c1=O | > 20 µM |

These molecules were tested against T1, Mushroom tyrosinase (assay: Inhibition of mushroom tyrosinase using L-DOPA as substrate preincubated for 10 mins followed by substrate addition and measured after 20 mins by absorbance based analysis).

| SMILES | IC50 |
| --- | --- |
| COc1cc(OC)cc(OCc2cn(CC3=CC(=O)C(O)=CC3=O)nn2)c1 | 0.74 µM |
| CC(=O)Nc1ccc(OCc2cn(CC3=CC(=O)C(O)=CC3=O)nn2)cc1 | 2.64 µM |
| CCOc1ccc(NC(=O)CSc2nnc(Cc3csc(N)n3)n2-c2ccccc2)cc1 | 0.17 µM |
| O=C1C=C(Cn2cc(COc3ccc(Cl)cc3)nn2)C(=O)C=C1O | 0.69 µM |
| O=C1OC(c2cc([N+](=O)[O-])cc([N+](=O)[O-])c2)=NC(=S)C1c1nn[nH]n1 (stereo not drawn) | 0.075 µM |
| O=C1C=C(Cn2cc(COc3ccccc3)nn2)C(=O)C=C1O | 1.33 µM |
| O=C1OC(c2cccc(Cl)c2)=NC(=S)C1C1N=NN=N1 (stereo not drawn) | 0.071 µM |
| O=C1C=C(Cn2cc(COc3ccc(Cl)cc3Cl)nn2)C(=O)C=C1O | 1.12 µM |
| Cc1ccc(NC(=O)CSc2nnc(Cc3csc(N)n3)n2-c2ccccc2)c(C)c1 | 0.054 µM |
| N#Cc1ccc(OCc2cn(CC3=CC(=O)C(O)=CC3=O)nn2)cc1 | 6.29 µM |
| O=C1C=C(Cn2cc(COc3ccc(Br)cc3)nn2)C(=O)C=C1O | 6.8 µM |
| O=C1OC(c2ccc([N+](=O)[O-])cc2)=NC(=S)C1c1nn[nH]n1 (stereo not drawn) | 0.081 µM |
| O=C1C=C(Cn2cc(COc3ccc([N+](=O)[O-])cc3)nn2)C(=O)C=C1O | 0.52 µM |
| CCc1ccccc1NC(=O)CSc1nnc(Cc2csc(N)n2)n1-c1ccccc1 | 0.065 µM |
| O=C1C=C(Cn2cc(COc3cccc(F)c3)nn2)C(=O)C=C1O | 1.07 µM |
| CCc1cccc(C)c1NC(=O)CSc1nnc(Cc2csc(N)n2)n1-c1ccccc1 | 0.19 µM |
| Nc1nc(Cc2nnc(SCC(=O)Nc3ccccc3)n2-c2ccccc2)cs1 | 0.13 µM |
| COc1ccc(OCc2cn(CC3=CC(=O)C(O)=CC3=O)nn2)cc1 | 1.24 µM |
| Cc1ccc(C2=NC(=S)C(c3nn[nH]n3)C(=O)O2)cc1 (stereo not drawn) | 0.31 µM |

| SMILES | IC50 |
| --- | --- |
| COc1cc(OCc2cn(CC3=CC(=O)C(O)=CC3=O)nn2)cc(OC)c1OC | 0.87 µM |
| O=C1OC(c2ccc(Cl)cc2)=NC(=S)C1c1nn[nH]n1 (stereo not drawn) | 0.29 µM |
| O=C1OC(c2cccc([N+](=O)[O-])c2)=NC(=S)C1C1N=NN=N1 (stereo not drawn) | 0.06 µM |
| Nc1nc(Cc2nnc(SCC(=O)NCc3ccccc3)n2-c2ccccc2)cs1 | 1.01 µM |
| COc1ccc(C2=NC(=S)C(C3N=NN=N3)C(=O)O2)cc1 (stereo not drawn) | 0.073 µM |
| COc1cccc(OC)c1C1=NC(=S)C(c2nn[nH]n2)C(=O)O1 (stereo not drawn) | 0.2 µM |
| Cc1cccc(NC(=O)CSc2nnc(Cc3csc(N)n3)n2-c2ccccc2)c1C | 2.01 µM |
| Cc1ccc(C)c(NC(=O)CSc2nnc(Cc3csc(N)n3)n2-c2ccccc2)c1 | 0.058 µM |
| O=C1OC(c2ccc(Cl)cc2Cl)=NC(=S)C1c1nn[nH]n1 (stereo not drawn) | 0.047 µM |
| O=C1OC(c2ccccc2Cl)=NC(=S)C1c1nn[nH]n1 (stereo not drawn) | 0.088 µM |
| O=C1C=C(Cn2cc(COc3ccc(F)cc3)nn2)C(=O)C=C1O | 0.88 µM |
| Cc1ccc(NC(=O)CSc2nnc(Cc3csc(N)n3)n2-c2ccccc2)cc1C | 0.11 µM |
| O=C1C=C(Cn2cc(COc3cccc(Cl)c3)nn2)C(=O)C=C1O | 0.99 µM |
| Cc1cccc(C)c1NC(=O)CSc1nnc(Cc2csc(N)n2)n1-c1ccccc1 | 0.051 µM |
| Cc1cc(C)cc(NC(=O)CSc2nnc(Cc3csc(N)n3)n2-c2ccccc2)c1 | 0.24 µM |
| Cc1ccccc1NC(=O)CSc1nnc(Cc2csc(N)n2)n1-c1ccccc1 | 0.015 µM |
| CCc1ccc(NC(=O)CSc2nnc(Cc3csc(N)n3)n2-c2ccccc2)cc1 | 0.12 µM |
| O=C1C=C(Cn2cc(COc3ccc(CO)cc3)nn2)C(=O)C=C1O | 1.32 µM |
| Nc1nc(Cc2nnc(SCC(=O)NCCc3ccccc3)n2-c2ccccc2)cs1 | 0.016 µM |

The molecules below were run against T1, Mushroom tyrosinase (assay: Inhibition of mushroom tyrosinase using L-DOPA as substrate preincubated for 10 mins followed by substrate addition by absorbance based analysis).

| SMILES | IC50 |
| --- | --- |
| COc1cccc(C2CC(c3cc4ccccc4oc3=O)=NN2c2nc(-c3ccc(Br)cc3)cs2)c1O (stereo not drawn) | 0.037 µM |
| COc1ccc(C2CC(c3cc4ccccc4oc3=O)=NN2c2nc(-c3ccc(Br)cc3)cs2)cc1O (stereo not drawn) | 0.083 µM |
| O=c1oc2ccccc2cc1C1=NN(c2nc(-c3ccc(Br)cc3)cs2)C(C2=CC3C=CC=CC3N2)C1 (stereo not drawn) | 0.017 µM |
| CN(C)c1ccc(C2CC(c3cc4ccccc4oc3=O)=NN2c2nc(-c3ccc(Br)cc3)cs2)cc1 (stereo not drawn) | 0.22 µM |
| O=c1oc2ccccc2cc1C1=NN(c2nc(-c3ccc(Br)cc3)cs2)C(c2ccccc2)C1 (stereo not drawn) | 0.26 µM |
| O=c1oc2ccccc2cc1C1=NN(c2nc(-c3ccc(Br)cc3)cs2)C(c2ccc(O)cc2)C1 (stereo not drawn) | 0.23 µM |
| O=c1oc2ccccc2cc1C1=NN(c2nc(-c3ccc(Br)cc3)cs2)C(c2cc([N+](=O)[O-])ccc2Cl)C1 (stereo not drawn) | 0.028 µM |
| O=[N+]([O-])c1ccccc1/C=N/c1nnc(S)s1 | 0.67 µM |
| Sc1nnc(/N=C/c2ccccc2)s1 | > 20 µM |
| O=c1oc2ccccc2cc1C1=NN(c2nc(-c3ccc(Br)cc3)cs2)C(c2ccccc2O)C1 (stereo not drawn) | 0.096 µM |
| O=c1oc2ccccc2cc1C1=NN(c2nc(-c3ccc(Br)cc3)cs2)C(c2cc([N+](=O)[O-])ccc2O)C1 (stereo not drawn) | 0.91 µM |
| CCn1c2ccccc2c2cc(C3CC(c4cc5ccccc5oc4=O)=NN3c3nc(-c4ccc(Br)cc4)cs3)ccc21 (stereo not drawn) | 0.1 µM |
| Sc1nnc(/N=C/c2ccc(Cl)c(Cl)c2)s1 | 3.62 µM |
| Oc1ccccc1/C=N/c1nnc(S)s1 | 0.78 µM |
| O=c1oc2ccccc2cc1C1=NN(c2nc(-c3ccc(Br)cc3)cs2)C(c2ccco2)C1 (stereo not drawn) | 0.38 µM |
| Oc1ccc(Cl)cc1/C=N/c1nnc(S)s1 | 1.71 µM |
| S=c1[nH]nc(/N=C/c2ccc(Cl)cc2)s1 | 2.46 µM |
| O=c1oc2ccccc2cc1C1=NN(c2nc(-c3ccc(Br)cc3)cs2)C(c2ccc([N+](=O)[O-])cc2)C1 (stereo not drawn) | 0.13 µM |
| O=c1oc2ccccc2cc1C1=NN(c2nc(-c3ccc(Br)cc3)cs2)C(c2ccc(Cl)cc2)C1 (stereo not drawn) | 0.46 µM |
| Fc1ccccc1/C=N/c1nnc(S)s1 | 0.76 µM |
| O=c1oc2ccccc2cc1C1=NN(c2nc(-c3ccc(Br)cc3)cs2)C(c2ccc(Br)cc2)C1 (stereo not drawn) | 0.052 µM |
| O=c1oc2ccccc2cc1C1=NN(c2nc(-c3ccc(Br)cc3)cs2)C(c2ccc(OCc3ccccc3)cc2)C1 (stereo not drawn) | 0.97 µM |
| Oc1ccc(Br)cc1/C=N/c1nnc(S)s1 | 1.97 µM |
| COc1cc(/C=N/c2nnc(S)s2)cc(OC)c1 | 5.35 µM |
| COc1ccccc1/C=N/c1nnc(S)s1 | 0.73 µM |
| COc1cc(OC)c(/C=N/c2nnc(S)s2)c(OC)c1 | 0.9 µM |
| Sc1nnc(/N=C/c2cccc(Cl)c2)s1 | 4.75 µM |
| COc1cc(/C=N/c2nnc(S)s2)cc(OC)c1O | 0.473 µM |
| COc1ccc(C2CC(c3cc4ccccc4oc3=O)=NN2c2nc(-c3ccc(Br)cc3)cs2)cc1[N+](=O)[O-] (stereo not drawn) | 0.87 µM |
| CC(C)(C)c1ccc(/C=N/c2nnc(S)s2)cc1 | 1.4 µM |
